ChEMBL document CHEMBL1201862, “PubChem BioAssay data set” (2004)
Structures can show the parent of a compound that is named as a salt.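 Following 48 hours of exposure in 96-well plates, responses at five concentrations were used to interpolate endpoints linearly. At the GI50, growth is halved.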 Activity calls are given as the source filed them. No stated cut-off is given here; in the data, active = GI50 up to about 1.1 µM and inactive = higher.

How the values were obtained:
Test in all cases: DTP human tumour cell line panel, 48 h
[1] = test system: RXF 631
[2] = test system: M19-MEL
[3] = test system: LXFL 529
[4] = test system: DMS-114
[5] = test system: KM-20L2
[6] = test system: DLD-1
[7] = test system: DMS-273
[8] = test system: XF498
[9] = test system: SNB-78

| Structure (SMILES) | GI50 [1] | GI50 [2] | GI50 [3] | GI50 [4] | GI50 [5] | GI50 [6] | GI50 [7] | GI50 [8] | GI50 [9] |
| --- | --- | --- | --- | --- | --- | --- | --- | --- | --- |
| COc1ccc2c(c1)C(O)(C(F)(F)F)c1cc(C(=O)C(F)(F)F)c3ccccc3c1N2 (stereo not given) | 13.5 µM (inactive) | 14.8 µM (inactive) | 10.3 µM (inactive) | 10 µM (inactive) | 3.71 µM (inactive) | 10.2 µM (inactive) | 11 µM (inactive) | – | – |
| COC(=O)C(=O)C(C(=O)C=C(C)C)C(=O)C(=O)Nc1ccc(C)cc1C (stereo not given) | – | > 100 µM (inactive) | > 100 µM (inactive) | > 100 µM (inactive) | > 100 µM (inactive) | > 100 µM (inactive) | > 100 µM (inactive) | > 100 µM (inactive) | > 100 µM (inactive) |
| COC(=O)C1=CO[C@@H](C)[C@@H]2Cn3ccc4c5ccccc5nc-4c3C[C@H]12 [ALSTONINE HYDROCHLORIDE] | > 100 µM (inactive) | > 100 µM (inactive) | > 100 µM (inactive) | > 100 µM (inactive) | > 100 µM (inactive) | > 100 µM (inactive) | > 100 µM (inactive) | 49.5 µM (inactive) | > 100 µM (inactive) |
| Cc1cc(C)nc(NS(=O)(=O)c2ccc(NC(=O)c3ccc(Cl)c4c(Nc5ccc(S(=O)(=O)Nc6nc(C)cc(C)n6)cc5)c5ccccc5nc34)cc2)n1 | 4.29 µM (inactive) | 2.91 µM (inactive) | 4.69 µM (inactive) | 2.87 µM (inactive) | 6.43 µM (inactive) | 21.9 µM (inactive) | 6.34 µM (inactive) | > 100 µM (inactive) | 3.71 µM (inactive) |
| COc1cc2c(oc(=O)c3c4oc([Si](C)(C)C)cc4cc(OC)c23)c2cccc(O)c12 | – | > 100 µM (inactive) | > 100 µM (inactive) | > 100 µM (inactive) | > 100 µM (inactive) | > 100 µM (inactive) | > 100 µM (inactive) | > 100 µM (inactive) | – |
| COc1ccc(C(=O)CC2=Nc3nnc(CCCCCCCc4nnc5n4C(=O)C(CC(=O)c4ccc(OC)cc4)=N5)n3C2=O)cc1 | > 100 µM (inactive) | > 100 µM (inactive) | > 100 µM (inactive) | > 100 µM (inactive) | > 100 µM (inactive) | > 100 µM (inactive) | – | > 100 µM (inactive) | – |
| O=C(Nc1ccccc1[N+](=O)[O-])/C(=N/Nc1cccc(Cl)c1)c1c(O)c2ccccc2oc1=O | – | > 100 µM (inactive) | 31 µM (inactive) | 16.2 µM (inactive) | > 100 µM (inactive) | 49.3 µM (inactive) | 29.6 µM (inactive) | – | – |
| CC/C(=N\NS(=O)(=O)c1ccccc1)c1ccccc1 | > 100 µM (inactive) | > 100 µM (inactive) | > 100 µM (inactive) | – | > 100 µM (inactive) | > 100 µM (inactive) | > 100 µM (inactive) | > 100 µM (inactive) | > 100 µM (inactive) |
| COc1ccc2[nH]c3c(cnn4cnnc34)c2c1 | > 100 µM (inactive) | > 100 µM (inactive) | > 100 µM (inactive) | > 100 µM (inactive) | > 100 µM (inactive) | > 100 µM (inactive) | > 100 µM (inactive) | – | – |
| O=C1CSc2ccncc2N1 | – | > 100 µM (inactive) | > 100 µM (inactive) | > 100 µM (inactive) | > 100 µM (inactive) | > 100 µM (inactive) | > 100 µM (inactive) | > 100 µM (inactive) | – |
| CNC1C(O)CC(OC2C/C=C(\C)C/C(C)=C/C=C/CCC(C)CNC(=O)/C=C/C=C/C2C)OC1C (stereo not given) | 0.206 µM (active) | 0.714 µM (active) | 0.14 µM (active) | 0.463 µM (active) | 0.63 µM (active) | 0.26 µM (active) | 0.188 µM (active) | 1.68 µM (inactive) | 1.66 µM (inactive) |
| COC1CC(OC)C(O)C(CO)O1 (stereo not given) | – | > 100 µM (inactive) | > 100 µM (inactive) | – | > 100 µM (inactive) | > 100 µM (inactive) | – | > 100 µM (inactive) | > 100 µM (inactive) |
| O=c1[nH]c(C2CCCCC2)nc2c(Cl)cccc12 | – | > 100 µM (inactive) | > 100 µM (inactive) | > 100 µM (inactive) | > 100 µM (inactive) | > 100 µM (inactive) | > 100 µM (inactive) | > 100 µM (inactive) | > 100 µM (inactive) |
| COc1nc(NC2OC(COC(C)=O)C(OC(C)=O)C(OC(C)=O)C2OC(C)=O)c2c(OC(C)=O)c(C)c(=O)oc2n1 (stereo not given) | – | > 100 µM (inactive) | > 100 µM (inactive) | > 100 µM (inactive) | > 100 µM (inactive) | > 100 µM (inactive) | – | > 100 µM (inactive) | > 100 µM (inactive) |
| COC(=O)/C=C(\C(=O)OC)c1c2c3c(cc(OC)c(OC)c3c3ccccc13)CCN2C | 33.8 µM (inactive) | 33 µM (inactive) | 42.1 µM (inactive) | 27.9 µM (inactive) | 12.6 µM (inactive) | 22.3 µM (inactive) | 22.6 µM (inactive) | – | 37.8 µM (inactive) |
| O=C(Cc1c(C(=O)Nc2ccccc2)sc(C(=O)Nc2ccccc2)c1CC(=O)Nc1ccccc1)Nc1ccccc1 | – | > 100 µM (inactive) | > 100 µM (inactive) | > 100 µM (inactive) | > 100 µM (inactive) | > 100 µM (inactive) | > 100 µM (inactive) | > 100 µM (inactive) | > 100 µM (inactive) |
| Nc1nc(NCCO)c(N=O)c(=O)[nH]1 | – | > 100 µM (inactive) | > 100 µM (inactive) | > 100 µM (inactive) | > 100 µM (inactive) | > 100 µM (inactive) | > 100 µM (inactive) | > 100 µM (inactive) | > 100 µM (inactive) |
| COc1cc2[nH]c3c(c2cc1OC)CCN[C@]31CC[C@]2(CC3c4c(cc(OC)c(O)c42)CCN3C)C[C@H]1OC (stereo not given in full) | 11.7 µM (inactive) | 17.9 µM (inactive) | 24.5 µM (inactive) | 17.3 µM (inactive) | 28.1 µM (inactive) | 24.4 µM (inactive) | 2 µM (inactive) | 15.6 µM (inactive) | 29.1 µM (inactive) |
| CN(C)c1ccc(/C=c2\sc3nnc(-c4ccco4)n3c2=O)cc1 | > 100 µM (inactive) | > 100 µM (inactive) | > 100 µM (inactive) | > 100 µM (inactive) | > 100 µM (inactive) | > 100 µM (inactive) | > 100 µM (inactive) | > 100 µM (inactive) | > 100 µM (inactive) |
| O=C1Cc2c([nH]c3ccccc23)-c2cc(Br)ccc2N1 | > 100 µM (inactive) | > 100 µM (inactive) | > 100 µM (inactive) | > 100 µM (inactive) | > 100 µM (inactive) | > 100 µM (inactive) | > 100 µM (inactive) | – | > 100 µM (inactive) |
| CC(/C=C/C(=O)c1sc(C(N)=S)nc1C)=C\c1ccccc1 | 40.6 µM (inactive) | > 100 µM (inactive) | > 100 µM (inactive) | 17 µM (inactive) | 80.2 µM (inactive) | 21 µM (inactive) | 20 µM (inactive) | > 100 µM (inactive) | > 100 µM (inactive) |
| COC(=O)OCC1OC(N2C(=O)NC(=O)C(I)C2N=[N+]=[N-])CC1OC(=O)OC (stereo not given) | > 100 µM (inactive) | > 100 µM (inactive) | > 100 µM (inactive) | – | > 100 µM (inactive) | > 100 µM (inactive) | > 100 µM (inactive) | > 100 µM (inactive) | > 100 µM (inactive) |
| CCOC(=O)c1sc2c(C(=O)OCC)n3cc(C)cc(C)c3c2c1O | – | > 100 µM (inactive) | > 100 µM (inactive) | 37.6 µM (inactive) | > 100 µM (inactive) | > 100 µM (inactive) | > 100 µM (inactive) | – | > 100 µM (inactive) |
| O=c1[nH]c(=O)n(C2CC(O)C(CO)O2)cc1C(F)(C(F)(F)F)C(F)(F)F (stereo not given) | – | > 100 µM (inactive) | > 100 µM (inactive) | > 100 µM (inactive) | > 100 µM (inactive) | > 100 µM (inactive) | > 100 µM (inactive) | > 100 µM (inactive) | > 100 µM (inactive) |
| CC(C)(C)c1cc(C(O)(C(F)(F)F)C(F)(F)F)c2c(c1)C(C(F)(F)F)(C(F)(F)F)OC(C(C)(C)C)N2 (stereo not given) | 2.15 µM (inactive) | 2.47 µM (inactive) | 2.82 µM (inactive) | 1.12 µM (inactive) | 2.86 µM (inactive) | 4.21 µM (inactive) | 2.18 µM (inactive) | < 0.01 µM (active) | 2.75 µM (inactive) |
| CCCNC(=S)NNC(=O)CSc1nc(-c2ccccc2)c(-c2ccccc2)[nH]1 | – | 45 µM (inactive) | 27.9 µM (inactive) | > 100 µM (inactive) | 84.1 µM (inactive) | 70.3 µM (inactive) | 34.8 µM (inactive) | 47.4 µM (inactive) | > 100 µM (inactive) |
| Cn1c(=O)c2[nH]cnc2n(CC(=O)O)c1=O | > 100 µM (inactive) | > 100 µM (inactive) | > 100 µM (inactive) | > 100 µM (inactive) | > 100 µM (inactive) | > 100 µM (inactive) | > 100 µM (inactive) | > 100 µM (inactive) | > 100 µM (inactive) |
| CC(C)CC12CC3CCC(CNC1=O)C32C (stereo not given) | – | > 100 µM (inactive) | > 100 µM (inactive) | 78 µM (inactive) | – | > 100 µM (inactive) | > 100 µM (inactive) | > 100 µM (inactive) | > 100 µM (inactive) |
